Molecules are shown by their SMILES.

The target of the assay is Glutamate receptor ionotropic NMDA 2B (Rattus norvegicus) (UniProt Q00960). As to the kind of experiment: In vitro inhibition of NMDA responses at NR1A/2B receptor expressed in Xenopus oocytes.
Chain of Glutamate receptor ionotropic NMDA 2B (Rattus norvegicus) (Q00960 whole entry, looked up): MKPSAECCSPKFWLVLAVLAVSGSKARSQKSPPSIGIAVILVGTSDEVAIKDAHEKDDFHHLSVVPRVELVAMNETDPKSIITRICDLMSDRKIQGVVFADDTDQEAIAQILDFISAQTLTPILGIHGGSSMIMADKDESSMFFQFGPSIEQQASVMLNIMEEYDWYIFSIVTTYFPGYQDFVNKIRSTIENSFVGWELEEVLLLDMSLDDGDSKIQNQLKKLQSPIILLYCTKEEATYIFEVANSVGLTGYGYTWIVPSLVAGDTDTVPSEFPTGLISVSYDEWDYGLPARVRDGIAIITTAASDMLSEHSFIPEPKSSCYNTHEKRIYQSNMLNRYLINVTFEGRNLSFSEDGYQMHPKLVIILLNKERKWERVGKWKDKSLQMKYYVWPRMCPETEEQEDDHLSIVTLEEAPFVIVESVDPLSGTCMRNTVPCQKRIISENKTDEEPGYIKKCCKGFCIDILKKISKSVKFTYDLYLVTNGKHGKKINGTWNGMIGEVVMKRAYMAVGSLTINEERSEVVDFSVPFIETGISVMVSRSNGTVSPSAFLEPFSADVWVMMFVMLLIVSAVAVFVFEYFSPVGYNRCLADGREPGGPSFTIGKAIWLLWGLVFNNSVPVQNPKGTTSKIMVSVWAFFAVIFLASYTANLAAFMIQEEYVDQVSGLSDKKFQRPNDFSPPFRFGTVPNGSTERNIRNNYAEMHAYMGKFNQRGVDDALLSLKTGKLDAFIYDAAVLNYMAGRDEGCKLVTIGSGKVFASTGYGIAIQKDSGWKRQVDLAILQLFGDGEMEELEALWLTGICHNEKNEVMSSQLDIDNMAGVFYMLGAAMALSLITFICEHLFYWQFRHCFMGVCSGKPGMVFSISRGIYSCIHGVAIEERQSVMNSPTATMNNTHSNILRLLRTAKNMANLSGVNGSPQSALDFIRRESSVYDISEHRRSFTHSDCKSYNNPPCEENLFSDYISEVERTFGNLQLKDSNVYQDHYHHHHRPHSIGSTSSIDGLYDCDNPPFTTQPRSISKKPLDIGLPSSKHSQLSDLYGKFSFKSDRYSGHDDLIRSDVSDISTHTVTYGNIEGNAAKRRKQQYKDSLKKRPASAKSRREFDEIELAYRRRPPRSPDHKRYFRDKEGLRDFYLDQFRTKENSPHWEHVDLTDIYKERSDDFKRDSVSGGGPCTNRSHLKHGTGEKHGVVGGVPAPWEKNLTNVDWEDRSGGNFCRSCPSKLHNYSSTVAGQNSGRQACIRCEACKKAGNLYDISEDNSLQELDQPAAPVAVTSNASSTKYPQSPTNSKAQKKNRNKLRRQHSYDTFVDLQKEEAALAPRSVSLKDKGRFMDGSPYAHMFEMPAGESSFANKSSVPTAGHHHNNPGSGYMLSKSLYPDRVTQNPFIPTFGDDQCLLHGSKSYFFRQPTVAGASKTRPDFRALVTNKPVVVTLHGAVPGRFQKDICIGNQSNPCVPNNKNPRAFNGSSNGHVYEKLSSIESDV

In the case of `Oc1ccc(OCCN2CCC(Cc3ccccc3)CC2)cc1` [4-[2-(4-Benzyl-piperidin-1-yl)-ethoxy]-phenol], the IC50 (in general, the concentration needed to halve the response being measured) amounted to 0.025 µM.

Source of the values: BindingDB's records for doi:10.1021/jm990537r (Cocensys, 2000).
